Source: patent publication US12329799B2, “Peptidyl inhibitors of calcineurin-NFAT interaction” (Ohio State Innovation Foundation, priority 2018, dated 2025)
Where two headings read alike, the source gives them in different places. Positions of bridges follow the written chain, without caps; N, C: chain ends. Non-standard residues stand in square brackets, D forms with d. Residues, ends and D or L forms follow the SMILES beside them. Chains are numbered I, II in the order given. *: point of attachment. FITC = O=C1OC2(c3ccc(O)cc3Oc3cc(O)ccc32)c2ccc(NC(=S)*)cc21; Benzoyl(2,3,4,5,6-F5) = O=C(c1c(F)c(F)c(F)c(F)c1F)*; Benzoyl(2,3-Cl2) = O=C(c1cccc(Cl)c1Cl)*; Phe(4-F) = N[C@@H](Cc1ccc(F)cc1)C(=O)O; 2Nal = N[C@@H](Cc1ccc2ccccc2c1)C(=O)O; Val(3-OH) = CC(C)(O)[C@H](N)C(=O)O; X4 = O=C(c1cc(F)c(F)c(F)c1F)*; Chg = N[C@H](C(=O)O)C1CCCCC1; Tle = CC(C)(C)[C@H](N)C(=O)O; X6 = O=C(c1ccc(Br)c(Cl)c1)*; X5 = Cc1ccc(C(=O)*)c(F)c1F; X1 = O=C(c1ccnc(Cl)c1Cl)*; AEEA = NCCOCCOCC(=O)O; βAla = NCCC(=O)O

Tests used:
[1] = Aqueous solubility (turbidity at 780 nm); type: physicochemical
Protocol: The peptide was serially diluted from a DMSO stock into PBS (pH 7.4) containing 5% DMSO and the optical density of the resulting solutions were measured at 780 nm.
Solubility. Peptides were diluted from a DMSO stock into PBS, pH 7.4 and then serially diluted in identical buffer to standardize DMSO concentration in clear, 96-well plates. The solutions were allowed to stand for 1 h at RT without mixing and then turbidity was measured at 780 nm using a Tecan Infinite M1000 plate reader.

Calcineurin (GST-CN) = molecular target: T1, Calcineurin (GST-CN) (Homo sapiens, UniProt Q08209); experiment: Direct binding of FITC-labeled peptides to CN by fluorescence anisotropy/polarization; conditions: for Kd: Table 5, acyl-ZIZITGPHEEYK(FITC)-NH2 peptides, FA
T1 construct: made in house; host or cells: E. coli BL21
T1 sequence (Q08209 2-347 limits assumed): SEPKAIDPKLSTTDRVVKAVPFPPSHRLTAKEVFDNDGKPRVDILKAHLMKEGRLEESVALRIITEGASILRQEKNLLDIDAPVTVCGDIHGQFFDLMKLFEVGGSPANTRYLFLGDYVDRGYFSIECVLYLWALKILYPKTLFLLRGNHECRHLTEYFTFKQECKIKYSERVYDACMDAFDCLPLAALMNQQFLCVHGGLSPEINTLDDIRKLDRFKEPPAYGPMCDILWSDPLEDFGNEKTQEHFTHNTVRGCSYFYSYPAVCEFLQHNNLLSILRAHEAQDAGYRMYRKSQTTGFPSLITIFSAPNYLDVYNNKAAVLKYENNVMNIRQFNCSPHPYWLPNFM
Protocol: To facilitate concentration determination and binding analysis by fluorescence anisotropy (FA), a dipeptide Tyr-Lys was added to the C-terminus of ZIZIT (SEQ ID NO:1) and the lysine side chain was labeled with fluorescein isothiocyanate (FITC). The resulting peptide,
Fluorescence Polarization. Fluorescence polarization (FP) experiments were carried out to measure binding affinity in both direct and competitive binding experiments using GST-CN and peptides prepared as mentioned previously. For direct binding, 50 nM FITC-labeled peptide was prepared in PBS, pH 7.4 containing 5 mM DTT and 0.01% Triton-X100 and then added to GST-CN diluted in PBS containing 0.01% Triton-X100. Solutions were incubated for 1 h at RT with gentle mixing and then pipetted into black 384-well microplates. Fluorescence polarization was measured on a TECAN Infinite M1000 plate reader and titration curves were fitted using both KaelidaGraph v 3.6 and GraphPad PRISM to the equation:
[formula] • where FP is the measured fluorescence polarization, Amin is the minimum FP value, Amax is the maximum FP signal, Qb is the quantum yield of the bound fluorophore, Qf is the quantum yield of the free fluorophore, L is the ligand concentration, KD is the dissociation constant and x is the protein concentration.

SMILES	Kd (Calcineurin (GST-CN); read-out: KD) [nM]	aqueous solubility (qualitative) [1]	also measured
CC[C@H](C)[C@H](NC(=O)[C@@H](NC(=O)[C@@H](NC(=O)[C@@H](NC(=O)c1ccnc(Cl)c1Cl)C(C)(C)C)C1CCCCC1)C(C)(C)O)C(=O)N[C@H](C(=O)N[C@@H](CCC(N)=O)C(=O)N[C@@H](Cc1c[nH]cn1)C(=O)N[C@H](CC(C)C)C(=O)N[C@@H](CO)C(=O)NCCC(=O)N[C@@H](CCCCNC(=O)CC[C@@H]1NC(=O)[C@@H](CCCNC(=N)N)NC(=O)[C@H](CCCNC(=N)N)NC(=O)[C@@H](CCCNC(=N)N)NC(=O)[C@H](CCCNC(=N)N)NC(=O)[C@H](Cc2ccc3ccccc3c2)NC(=O)[C@@H](Cc2ccccc2)NC1=O)C(N)=O)[C@@H](C)O [Compound 44, (DCNA)-Tle-Chg-Bhv-Ile-Thr-Gln-His-(D-Leu)-Ser-βAla-Lys{[cyclo-(Gln-(D-Arg)-Arg-(D-Arg)-Arg-(2-Nal)-(D-Phe)]}-NH2] (I: X1-[Tle][Chg][Val(3-OH)]ITQH[dL]S[βAla]K-NH2 / II: cyclo([2Nal]R[dR]R[dR]E[dF]); amide I:11-II:6 (inferred); ring closure inferred)			solubility relative to CNI103 [1]: less soluble
CC[C@H](C)[C@H](NC(=O)[C@@H](NC(=O)c1cc(F)c(F)c(F)c1F)C(C)(C)C)C(=O)N[C@H](C(=O)N[C@H](C(=O)N[C@H](C(=O)NCC(=O)N1CCC[C@H]1C(=O)N[C@@H](Cc1c[nH]cn1)C(=O)N[C@@H](CCC(=O)O)C(=O)N[C@@H](CCC(=O)O)C(=O)N[C@@H](Cc1ccc(O)cc1)C(=O)N[C@@H](CCCCNC(=S)Nc1ccc2c(c1)C(=O)OC21c2ccc(O)cc2Oc2cc(O)ccc21)C(N)=O)[C@@H](C)O)[C@@H](C)CC)C(C)(C)C [Peptide 7] (X4-[Tle]I[Tle]ITGPHEEYK(FITC)-NH2)			Kd (Calcineurin (GST-CN); KD (nM)): 32 to 189 nM
CC[C@H](C)[C@H](NC(=O)[C@@H](NC(=O)c1cccc(Cl)c1Cl)C(C)(C)C)C(=O)N[C@H](C(=O)N[C@H](C(=O)N[C@H](C(=O)NCC(=O)N1CCC[C@H]1C(=O)N[C@@H](Cc1c[nH]cn1)C(=O)N[C@@H](CCC(=O)O)C(=O)N[C@@H](CCC(=O)O)C(=O)N[C@@H](Cc1ccc(O)cc1)C(=O)N[C@@H](CCCCNC(=S)Nc1ccc2c(c1)C(=O)OC21c2ccc(O)cc2Oc2cc(O)ccc21)C(N)=O)[C@@H](C)O)[C@@H](C)CC)C(C)(C)C [Peptide 9] ({Benzoyl(2,3-Cl2)}-[Tle]I[Tle]ITGPHEEYK(FITC)-NH2)			Kd (Calcineurin (GST-CN); KD (nM)): 32 to 189 nM
CC[C@H](C)[C@H](NC(=O)[C@@H](NC(=O)c1c(F)c(F)c(F)c(F)c1F)C(C)(C)C)C(=O)N[C@H](C(=O)N[C@H](C(=O)N[C@H](C(=O)NCC(=O)N1CCC[C@H]1C(=O)N[C@@H](Cc1c[nH]cn1)C(=O)N[C@@H](CCC(=O)O)C(=O)N[C@@H](CCC(=O)O)C(=O)N[C@@H](Cc1ccc(O)cc1)C(=O)N[C@@H](CCCCNC(=S)Nc1ccc2c(c1)C(=O)OC21c2ccc(O)cc2Oc2cc(O)ccc21)C(N)=O)[C@@H](C)O)[C@@H](C)CC)C(C)(C)C [Peptide 11] ({Benzoyl(2,3,4,5,6-F5)}-[Tle]I[Tle]ITGPHEEYK(FITC)-NH2)	32 to 189		
CC[C@H](C)[C@H](NC(=O)[C@@H](NC(=O)c1cccc(Cl)c1Cl)C(C)(C)C)C(=O)N[C@H](C(=O)N[C@H](C(=O)N[C@H](C(=O)NCCOCCOCC(=O)N[C@@H](CCCCNC(=S)Nc1ccc2c(c1)C(=O)OC21c2ccc(O)cc2Oc2cc(O)ccc21)C(N)=O)[C@@H](C)O)[C@@H](C)CC)C(C)(C)C [Peptide 12, Dcb-ZIZIT-miniPEG-Lys (FITC)] ({Benzoyl(2,3-Cl2)}-[Tle]I[Tle]IT[AEEA]K(FITC)-NH2; C-terminus assumed)			decrease in binding affinity on removal of C-terminal pentapeptide (GPHEE) (Calcineurin (GST-CN); peptide 12 versus peptide 9): 17 fold

The next lines start with results.

Kd (Calcineurin (GST-CN); read-out: KD) [nM]	aqueous solubility (qualitative) [1]	SMILES	also measured
32 to 189		CC[C@H](C)[C@H](NC(=O)[C@@H](NC(=O)c1ccc(C)c(F)c1F)C(C)(C)C)C(=O)N[C@H](C(=O)N[C@H](C(=O)N[C@H](C(=O)NCC(=O)N1CCC[C@H]1C(=O)N[C@@H](Cc1c[nH]cn1)C(=O)N[C@@H](CCC(=O)O)C(=O)N[C@@H](CCC(=O)O)C(=O)N[C@@H](Cc1ccc(O)cc1)C(=O)N[C@@H](CCCCNC(=S)Nc1ccc2c(c1)C(=O)OC21c2ccc(O)cc2Oc2cc(O)ccc21)C(N)=O)[C@@H](C)O)[C@@H](C)CC)C(C)(C)C [Peptide 8] (X5-[Tle]I[Tle]ITGPHEEYK(FITC)-NH2)	
32 to 189		CC[C@H](C)[C@H](NC(=O)[C@@H](NC(=O)c1ccc(Br)c(Cl)c1)C(C)(C)C)C(=O)N[C@H](C(=O)N[C@H](C(=O)N[C@H](C(=O)NCC(=O)N1CCC[C@H]1C(=O)N[C@@H](Cc1c[nH]cn1)C(=O)N[C@@H](CCC(=O)O)C(=O)N[C@@H](CCC(=O)O)C(=O)N[C@@H](Cc1ccc(O)cc1)C(=O)N[C@@H](CCCCNC(=S)Nc1ccc2c(c1)C(=O)OC21c2ccc(O)cc2Oc2cc(O)ccc21)C(N)=O)[C@@H](C)O)[C@@H](C)CC)C(C)(C)C [Peptide 10] (X6-[Tle]I[Tle]ITGPHEEYK(FITC)-NH2)	
	good aqueous solubility	CC[C@H](C)[C@H](NC(=O)[C@@H](NC(=O)c1cccc(Cl)c1Cl)C(C)(C)C)C(=O)N[C@H](C(=O)N[C@H](C(=O)N[C@H](C(=O)N[C@@H](Cc1ccc(O)cc1)C(=O)N[C@H](CCC(=O)O)C(=O)N[C@@H](Cc1ccc(F)cc1)C(=O)NCC(=O)NCCC(=O)N[C@@H](CCCCNC(=S)Nc1ccc2c(c1)C(=O)OC21c2ccc(O)cc2Oc2cc(O)ccc21)C(N)=O)[C@@H](C)O)[C@@H](C)CC)C(C)(C)C [Peptide 13, Dcb-ZIZIT-Tyr-glu-Fpa-Gly-βAla-Lys (FITC)] ({Benzoyl(2,3-Cl2)}-[Tle]I[Tle]ITY[dE][Phe(4-F)]G[βAla]K(FITC)-NH2; C-terminus assumed)	
	good aqueous solubility	CC[C@H](C)[C@H](NC(=O)[C@@H](NC(=O)c1cccc(Cl)c1Cl)C(C)(C)C)C(=O)N[C@H](C(=O)N[C@H](C(=O)N[C@H](C(=O)N[C@@H](CCC(N)=O)C(=O)N[C@@H](Cc1c[nH]cn1)C(=O)N[C@H](CC(C)C)C(=O)N[C@@H](CO)C(=O)NCCC(=O)N[C@@H](CCCCNC(=S)Nc1ccc2c(c1)C(=O)OC21c2ccc(O)cc2Oc2cc(O)ccc21)C(N)=O)[C@@H](C)O)[C@@H](C)CC)C(C)(C)C [Peptide 14, Dcb-ZIZIT-Gln-His-leu-Ser-βAla-Lys (FITC)] ({Benzoyl(2,3-Cl2)}-[Tle]I[Tle]ITQH[dL]S[βAla]K(FITC)-NH2; C-terminus assumed)	
	lower solubility	CC[C@H](C)[C@H](NC(=O)[C@@H](NC(=O)c1cccc(Cl)c1Cl)C(C)(C)C)C(=O)N[C@H](C(=O)N[C@H](C(=O)N[C@H](C(=O)N[C@@H](CCC(N)=O)C(=O)N[C@@H](Cc1c[nH]cn1)C(=O)N[C@H](CC(C)C)C(=O)N[C@@H](Cc1c[nH]cn1)C(=O)NCCC(=O)N[C@@H](CCCCNC(=S)Nc1ccc2c(c1)C(=O)OC21c2ccc(O)cc2Oc2cc(O)ccc21)C(N)=O)[C@@H](C)O)[C@@H](C)CC)C(C)(C)C [Peptide 15, Dcb-ZIZIT-Gln-His-leu-His-βAla-Lys (FITC)] ({Benzoyl(2,3-Cl2)}-[Tle]I[Tle]ITQH[dL]H[βAla]K(FITC)-NH2; C-terminus assumed)	
